{"source": "ChEMBL document CHEMBL5584305", "about": "“Cladoic Acid, an Anti-Trypanosoma cruzi Polyketide from Cladosporium sp. TP-F2020” (J Nat Prod, 2024)", "key": {"[1]": {"assay": "Cytotoxicity against mouse P388 cells at 100 uM", "format": "toxicity, cell-based"}, "Staphylococcus aureus": {"test_system": "Staphylococcus aureus", "assay": "Antimicrobial activity against Staphylococcus aureus FDA209P JC-1 at 100 microg/ml incubated for 20 hrs by liquid microculture method", "format": "functional, organism-based", "conditions": "dose 100.0 µg/ml"}, "Trichophyton rubrum": {"test_system": "Trichophyton rubrum", "assay": "Antimicrobial activity against Trichophyton rubrum NBRC5467 at 100 microg/ml incubated for 20 hrs by liquid microculture method", "format": "functional, organism-based", "conditions": "dose 100.0 µg/ml"}, "Trypanosoma cruzi [2]": {"test_system": "Trypanosoma cruzi", "assay": "Antitrypanosomal activity against Trypanosoma cruzi Tulahuen amastigotes infected in human HT-1080 cells assessed as inhibition of parasite growth incubated for 3 days by light microscopic analysis", "format": "functional, organism-based", "conditions": "HT-1080, 72 h"}, "Trypanosoma cruzi [3]": {"test_system": "Trypanosoma cruzi", "assay": "Antitrypanosomal activity against Trypanosoma cruzi epimastigote assessed as inhibition of proliferation by measuring cellular ATP level incubated for 24 hrs by Cell Titer-Glo 2.0 assay", "format": "functional, organism-based"}, "Kocuria rhizophila": {"test_system": "Kocuria rhizophila", "assay": "Antimicrobial activity against Kocuria rhizophila ATCC 9341 at 100 microg/ml incubated for 20 hrs by liquid microculture method", "format": "functional, organism-based", "conditions": "dose 100.0 µg/ml"}, "[4]": {"test_system": "Colletotrichum gloeosporioides", "assay": "Antimicrobial activity against Glomerella cingulata NBRC5907 at 100 microg/ml incubated for 20 hrs by liquid microculture method", "format": "functional, organism-based", "conditions": "dose 100.0 µg/ml"}, "[5]": {"test_system": "Agrobacterium radiobacter", "assay": "Antimicrobial activity against Rhizobium radiobacter NBRC14554 at 100 microg/ml incubated for 20 hrs by liquid microculture method", "format": "functional, organism-based", "conditions": "dose 100.0 µg/ml"}, "Saccharomyces cerevisiae": {"test_system": "Saccharomyces cerevisiae", "assay": "Antimicrobial activity against Saccharomyces cerevisiae S100 at 100 microg/ml incubated for 20 hrs by liquid microculture method", "format": "functional, organism-based", "conditions": "dose 100.0 µg/ml"}, "Candida albicans": {"test_system": "Candida albicans", "assay": "Antimicrobial activity against Candida albicans NBRC0197 at 100 microg/ml incubated for 20 hrs by liquid microculture method", "format": "functional, organism-based", "conditions": "dose 100.0 µg/ml"}, "Escherichia coli": {"test_system": "Escherichia coli", "assay": "Antimicrobial activity against Escherichia coli NIHJ JC-2 at 100 microg/ml incubated for 20 hrs by liquid microculture method", "format": "functional, organism-based", "conditions": "dose 100.0 µg/ml"}}, "note": "The source made the active and inactive calls. No cut-off for these calls is given here."}
{"smiles": "C\\C(=C/C=C/C=C/[C@H]1[C@@H](C)[C@H](O)[C@@H](O)[C@H]2[C@H](O)[C@@H](C)C[C@@H](C)[C@H]12)C(=O)O", "values": [{"measurement": "Activity", "setting": "[1]", "value": "Non-Toxic"}, {"measurement": "Activity", "setting": "Staphylococcus aureus", "value": "inactive"}, {"measurement": "Activity", "setting": "Trichophyton rubrum", "value": "inactive"}, {"measurement": "IC50", "setting": "Trypanosoma cruzi [2]", "value": 27, "unit": "µM"}, {"measurement": "IC50", "setting": "Trypanosoma cruzi [3]", "value": 46, "unit": "µM"}, {"measurement": "Activity", "setting": "Kocuria rhizophila", "value": "inactive"}, {"measurement": "Activity", "setting": "[4]", "value": "inactive"}, {"measurement": "Activity", "setting": "[5]", "value": "inactive"}, {"measurement": "Activity", "setting": "Saccharomyces cerevisiae", "value": "inactive"}, {"measurement": "Activity", "setting": "Candida albicans", "value": "inactive"}, {"measurement": "Activity", "setting": "Escherichia coli", "value": "inactive"}]}
